From patent publication US12409158B2, “Combination therapy for treating cancer” (GONGWIN BIOPHARM CO., LTD, priority 2022, dated 2025)

Assays:
IL-1β = experiment: IHC analysis of IL-1β in M5 tumors; assay type: in vivo, BALB/c nude mice; conditions: relative to the control group
Protocol: (§1) The mice were observed daily for clinical signs, weighed them every three days, and at one month after tumor-cell implantation euthanized them with an overdose of anesthetic combined with carbon dioxide. Immediately before sacrificing the mice, the blood was collected from them under anesthesia for hematological assessment. After euthanizing the mice, the tumors were excised immediately. The tumor specimens were divided into two groups. One group was treated with 10% formalin and embedded the specimens in paraffin. These specimens were investigated by hematoxylin and eosin staining; terminal deoxyribonucleotidyl transferase (TdT)-mediated biotin-16-dUTP nick-end labeling (TUNEL assay; APO-BrdU TUNEL Assay Kit, BD Pharmingen, San Diego, CA, USA); and IHC for IL-1β, TNF-α, TGF-β, and CD44, using primary antibodies against these factors (Merck, Billerica, MA, USA). Protein expression was assessed via IHC with the […] mouse/rabbit polymer detection system produced by BioTnA (Kaohsiung, Taiwan). A high-resolution digital microscope (Moticam 2300, Motic Instruments, Richmond, Canada) equipped with Motic Images Plus (version 2.0) was used to capture and analyze the images. The other groups of tumor specimens were first minced coarsely and homogenized, and then stored in a freezer at -80° C.

CD44 = experiment: IHC analysis of CD44 in M5 tumors; assay type: in vivo, BALB/c nude mice; conditions: relative to the control group
Protocol: as §1

IL-6 = experiment: ELISA of serum IL-6 in M5 tumor-bearing mice; assay type: in vivo, BALB/c nude mice; conditions: relative to the control group
Protocol: The serum levels of IL-6 in the blood samples were measured using commercial mouse kits (ab213749 and ab100697; Abcam, Cambridge, MA, USA) according to the manufacturer's protocol. 50 μl of samples were added to each of the wells in 96-well antibody-coated plates and then incubated for 2 hours at room temperature. 50 μl of the detector antibody solution was loaded into each well and incubated the plates for a further 1 hour at room temperature. Next, […] of HRP-Streptavidin solution (ab210901, Abcam) was added to each well, and once again incubated the plates for 1 hour at room temperature. Finally, 100 μl of tetramethylbenzidine substrate was added to each well and incubated the plates for another 10 min in the dark, again at room temperature. The reaction was stopped by adding 100 μl of stop solution. The wavelength of absorbance was at 450 nm and results were expressed in pg/ml.

M5 canine melanoma tumor [1] = experiment: M5 canine melanoma tumor growth in implanted mice; assay type: in vivo, BALB/cByJNarl mice; conditions: cisplatin 2 mg/kg; for Tumor mass: after excision from sacrificed mice, IP three times per week, PTS 100 mg/kg, mean ± SD; for Tumor mass reduction (%): relative to the control, PTS 100 mg/kg IP three times per week
Protocol: Male BALB/cByJNarl mice at six-weeks of age were obtained from National Laboratory Animal Breeding and Research Center, Taipei, Taiwan. Two mice were housed in each cage and provided them with sterile food and water. The mice were maintained under a constant temperature (22±2° C.) and relative humidity (55±5%), with a 12:12 h light:dark cycle. The Institutional Animal Care and Use Committee (IACUC) at the National […] University (IACUC Approval No.110003) reviewed and approved the study protocol, in which procedures were in accordance with the Guidelines for the Care and Use of Laboratory Animals published by the Taiwanese Ministry of Health and Welfare. The M5 canine melanoma cell line was obtained from the School of Veterinary Medicine at National Taiwan University. The cells were cultured in a humidified atmosphere (95% air, 5% CO2) at 37° C. in 90% high-glucose Dulbecc's Modified Eagle Medium supplemented with 5% fetal bovine serum, 50 IU/ml of penicillin, and […] of streptomycin (Gibco Laboratories, Grand Island, NY, USA). The cells were routinely passaged by removing the medium and overlaying the cell monolayer with 0.25% trypsin and 0.1% ethylenediaminetetraacetic acid. The experimental treatments were commenced after the implanted M5 cells had formed a detectable tumor mass, which was assessed on day 7 after implantation. Briefly, the mice were anesthetized via intraperitoneal injection of Zoletil (Virbac Taiwan, Taipei, Taiwan), and then subcutaneously injected 100 μl of cell suspension containing 10^7 viable M5 cells into a posterior leg. […] All treatments were administered via intraperitoneal injection. The control group received saline daily, while the three treatment groups received their corresponding treatments three times per week. The cisplatin group received 2 mg/kg cisplatin (Sigma; St. Louis, MO, USA). The PTS group was administered with 100 mg/kg PTS (Gongwin Biopharm Holding, Taipei, Taiwan). The cisplatin+PTS group received 100 mg/kg PTS and 2 mg/kg cisplatin. The dosage of cisplatin was selected such that this drug affects apoptosis, invasion, metastasis, angiogenesis, and the growth signal mechanisms in canine melanoma implanted in mice. […] The growth of the tumors was assessed every seven days by measuring their largest and smallest diameters, and calculated their volume according to the following formula: […] The mice were observed daily for clinical signs, weighed them every three days, and at one month after tumor-cell implantation euthanized them with an overdose of anesthetic combined with carbon dioxide. […] Protein expression was assessed via IHC with the […] mouse/rabbit polymer detection system produced by BioTnA (Kaohsiung, Taiwan). […]

CD45 = experiment: IHC analysis of CD45 in M5 tumors; assay type: in vivo, BALB/c nude mice; conditions: IHC staining, FIGS. 11A and 11B
M5 canine melanoma tumor [2] = experiment: TUNEL/DAPI assay of apoptosis in excised M5 tumors; assay type: in vivo, BALB/c nude mice; conditions: cisplatin 2 mg/kg, PTS 100 mg/kg IP three times per week
Protocol: as §1

SMILES | IL-1β activity reduction (IL-1β) | CD44 expression reduction (CD44) | serum IL-6 expression reduction (IL-6) | Tumor mass (M5 canine melanoma tumor [1]) | Tumor mass reduction (%) (M5 canine melanoma tumor [1]) | CD45 activity, times higher than the control group (CD45) | TUNEL-positive cell count as multiple of the control (M5 canine melanoma tumor [2])
N.N.[Cl][Pt][Cl] [Cisplatin, cisplatin, reference compound] | 29.7% | about 40.9% | 62.8% | 1.37 ± 0.25 g | 48.7% | 1.4 times | 3.9 times
Cc1ccc(S(N)(=O)=O)cc1 [PTS, p-Toluenesulfonamide] | 26.5% | ~34.4% | 57.5% | 1.48 ± 0.33 g | 44.2% | 1.3 times | 3.5 times
